Assay results published in the supplement of paper PMC10307832.

Experiments:
Test in all cases: relative viability (nuclei count vs DMSO), 5 days (fraction); higher = more cells survive
[1] = compound: COc1cc2nc(N3CCCN(C)CC3)nc(NC3CCN(Cc4ccccc4)CC3)c2cc1OC + C[C@@H](Oc1cc(-c2cnn(C3CCNCC3)c2)cnc1N)c1c(Cl)ccc(F)c1Cl [Crizotinib] (partner 1 µM)
Summary of the method: (§1)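 One day after seeding in 1536-well plates, lung cancer cell lines were dosed by pin tool. Dosing was either single-drug or a fixed anchor-drug dose plus five library-drug doses (not always all listed) in √10 steps. After 5 days, nuclei were stained in one fix-and-stain step and counted on 4× images, and relative viability is the nuclei count of treated wells over that of vehicle wells, given as the median of duplicate plates.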

[2] = compound: COc1cc2nc(N3CCCN(C)CC3)nc(NC3CCN(Cc4ccccc4)CC3)c2cc1OC + C[C@]1(O)C[C@@H](c2nc(-c3ccc4ccc(-c5ccccc5)nc4c3)c3c(N)nccn32)C1 [Linsitinib] (partner 1 µM)
Summary of the method: as §1

[3] = compound: Cc1cc([C@@H](C)Nc2ccccc2C(=O)O)c2nc(N3CCOCC3)cc(=O)n2c1 [AZD6482] + Nc1ncn([C@H]2C[C@H](O)[C@@H](CO)O2)c(=O)n1 [Decitabine] (partner 2 µM)
Summary of the method: as §1

[4] = compound: Cc1cc([C@@H](C)Nc2ccccc2C(=O)O)c2nc(N3CCOCC3)cc(=O)n2c1 [AZD6482] + CC(=O)c1c(C)c2cnc(Nc3ccc(N4CCNCC4)cn3)nc2n(C2CCCC2)c1=O [Palbociclib] (partner 0.5 µM)
Summary of the method: as §1

Cell Line	relative viability ([1]; first compound 0.2 µM)	relative viability ([1]; first compound 0.6325 µM)	relative viability ([1]; first compound 2 µM)	relative viability ([1]; first compound 6.325 µM)	relative viability ([2]; first compound 0.2 µM)	relative viability ([2]; first compound 0.6325 µM)	relative viability ([2]; first compound 2 µM)	relative viability ([2]; first compound 6.325 µM)	relative viability ([3]; first compound 0.08 µM)	relative viability ([3]; first compound 0.253 µM)	relative viability ([3]; first compound 0.8 µM)	relative viability ([3]; first compound 2.53 µM)	relative viability ([3]; first compound 8 µM)	relative viability ([4]; first compound 0.08 µM)	relative viability ([4]; first compound 0.253 µM)	relative viability ([4]; first compound 0.8 µM)	relative viability ([4]; first compound 2.53 µM)	relative viability ([4]; first compound 8 µM)
NCI-H1915	0.909	0.825	0.947	0.866	1.05	1.08	1.12	1.08	0.278	0.255	0.263	0.247	0.23	0.478	0.524	0.529	0.49	0.521
NCI-H1944	1.12	1.07		1.17	1.11	1.23		1.13	0.446	0.37	0.521	0.446	0.435	0.293	0.313	0.295	0.285	0.211
NCI-H1975	1.06	0.933	1.07	0.95	0.989	1.02	1.11	0.905	0.351	0.392	0.385	0.354	0.345	0.439	0.558	0.623	0.562	0.421
NCI-H1993	0.796	0.839	0.882	0.834	0.728	0.723	0.676	0.765	0.526	0.481	0.598	0.436	0.458	0.503	0.579	0.638	0.495	0.484
NCI-H2009	1.05	0.923	1.06	0.874	1.24	1.16	1.24	1.24	0.387	0.373	0.361	0.321	0.342	0.187	0.176	0.172	0.124	0.119
NCI-H2023	0.616	0.592	0.686	0.156	0.767	0.643	0.7	0.405	0.226	0.185	0.214	0.269	0.179	0.265	0.328	0.405	0.277	0.226
NCI-H2085	0.866	0.842	0.859	0.776	0.9	0.917	0.956	0.84	0.485	0.456	0.471	0.357	0.403	0.408	0.379	0.336	0.273	0.343
NCI-H2087	0.929	0.646	0.777	0.716	0.908	0.706	1.05	0.899	0.245	0.232	0.266	0.208	0.215	0.235	0.223	0.209	0.185	0.207
NCI-H2126	0.978	0.969	1.08	0.996	0.69	0.707	0.724	0.708	0.56	0.565	0.49	0.494	0.465	0.356	0.383	0.351	0.314	0.36
